Assay results published in US20020018778A1, “Passive desensitization” (priority 1999, published 2002).

Test system: serum IgE from patients with documented peanut hypersensitivity
Assay: IgE immunoblot mapping of human IgE binding epitopes on synthesized peanut antigen peptides
Conditions: Ara h 3 epitope; 10 patients tested
Experimental: (§1) IGE IMMUNOBLOT ANALYSIS: Membranes to be blotted were prepared either by SDS-PAGE (performed by the method of Laemmli Nature 227:680-685, 1970; incorporated herein by reference) of digested peanut antigen or by synthesis of antigen peptides on a derivativized cellulose membrane. SDS-PAGE gels were composed of 10% acrylamide resolving gel and 4% acrylamide stacking gel. Electrophoretic transfer and immunoblotting on nitrocellulose paper was performed by the procedures of Towbin (Proc. Natl. Acad. Sci. USA 76:4350-4354, 1979; incorporated herein by reference).
[…] […] At least 5 ml of venous blood was drawn from each patient and allowed to clot, and the serum was collected. All studies were approved by the Human Use Advisory Committee at the University of Arkansas for Medical Sciences. Serum was diluted in a solution containing TBS and 1% bovine serum albumin and incubated with antigen for at least 12 h at 4° C. or for 2 h at room temperature. The bound primary antibody was detected with ^125I-labeled anti-IgE antibody (Sanofi Diagnostics Pasteur Inc., Paris, France).
PEPTIDE SYNTHESIS: Individual peptides were synthesized on a derivativized cellulose membrane using Fmoc amino acid active esters according to the manufacturer's instructions (Genosys Biotechnologies, Woodlands, Tex.). Fmoc-amino acid derivatives were dissolved in 1-methyl-2-pyrrolidone and loaded on marked spots on the membrane. Coupling reactions were followed by acetylation with a solution of 4% (v/v) acetic anhydride in N,N-dimethyl formamide (DMF). After acetylation, Fmoc groups were removed by incubation of the membrane in 20% (v/v) piperdine in DMF. The membrane was then stained with bromophenol blue to identify the location of the free amino groups. Cycles of coupling, blocking, and deprotection were repeated until the peptides of the desired length were synthesized. After addition of the last amino acid in the peptide, the amino acid side chains were deprotected using a solution of dichloromethane/trifluoroacetic acid/triusobutylsilante (1/10/0.05). Membranes were either probed immediately or stored at −20° C. until needed.

Sequence	patients whose serum IgE recognized the epitope
VTVRGGLRTLSPDRK [Ara h 3 epitope 3]	10

Same assay, conditions: human IgE binding epitopes in Ara h 3

Sequence	FRACTION OF PATIENTS WITH IGE THAT BIND
DEDEYEYDEEDRRRG [Ara h 3 epitope 4]	4 (38%)
IETWNPNNQEFECAG [Ara h 3 epitope 1]	1 (25%)
GNIFSGFTPEFLEQA [Ara h 3 epitope 2]	2 (38%)
VTVRGGLRTLSPDRK [Ara h 3 epitope 3]	3 (100%)

Test system: serum IgE from mice sensitized to recombinant Ara h 2
Assay: IgE immunoblot mapping of murine IgE binding epitopes in Ara h 2
Conditions: mouse Ara h 2 epitopes; densitometric analysis of the blot
Experimental: as §1
For mapping of murine IgE binding sites, a blot containing overlapping 13 mer peptides, offset by 2 amino acids, was incubated with serum from peanut sensitized mice as described in U.S. patent application Ser. No. 09/455,294, filed Dec. 6, 1999; incorporated herein by reference.
PEPTIDE SYNTHESIS: Individual peptides were synthesized on a derivativized cellulose membrane using Fmoc amino acid active esters according to the manufacturer's instructions (Genosys Biotechnologies, Woodlands, Tex.). Fmoc-amino acid derivatives were dissolved in 1-methyl-2-pyrrolidone and loaded on marked spots on the membrane. Coupling reactions were followed by acetylation with a solution of 4% (v/v) acetic anhydride in N,N-dimethyl formamide (DMF). After acetylation, Fmoc groups were removed by incubation of the membrane in 20% (v/v) piperdine in DMF. […]

Sequence	contribution to the observed IgE reactivity, single epitope
RCQSQLERA [mouse Ara h 2 epitope (3)]	about 15%

Test system: T cell preparations
Assay: T cell stimulation by 5/20 native Ara h 2 peptides
Assay type: cell-based, human
Conditions: analysis of 15 patients
Experimental: Each peptide was tested, using standard techniques, on 19 different T cell preparations. Positive scores, defined as a T cell stimulation index of >2, are indicated by shading.
Each of these peptides was tested for its ability to stimulate T cells. Each peptide was tested, using standard techniques, on 19 different T cell preparations. Positive scores, defined as a T cell stimulation index of >2, are indicated by shading.
As discussed herein, it may sometimes be desirable to prepare blocking agent compositions comprising antigen fragments (e.g., IgE binding site and one or more T cell epitopes).

Sequence	single IgE site and T cell epitope in the same peptide
PCEQHLMQKIQRDEDSYERD [Peptide 9]	both a single IgE site and a T cell epitope recognized by at least one person
LTILVALALFLLAAHASARQ [Peptide 1]	both a single IgE site and a T cell epitope recognized by at least one person
RANLRPCEQHLMQKIQRDED [Peptide 8]	both a single IgE site and a T cell epitope recognized by at least one person
LLAAHASARQQWELQGDRRC [Peptide 3]	both a single IgE site and a T cell epitope recognized by at least one person
ALALFLLAAHASARQQWELQ [Peptide 2]	both a single IgE site and a T cell epitope recognized by at least one person
LMQKIQRDEDSYERDPYSPS [Peptide 10]	both a single IgE site and a T cell epitope recognized by at least one person
